Some test systems named below: HCC 2998; DU-145; TK-10; UACC-257; NCI-H23; M14; NCI/ADR-RES; A498; COLO 205; SF-295; SF-539; SNB-19; KM12; SNB-75; Hs-578T; CAKI-1; K562; SK-MEL-2; MOLT-4.
Test in all cases: NCI tumour cell line growth inhibition, 48 h

SMILES strings stand for the structures.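 Tested at 5 concentrations; 48 h exposure; 96-well plates; endpoints linearly interpolated, else capped at highest concentration. GI50: concentration for 50% inhibition of growth.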 Active and inactive are the calls of the source. Rule as the data show it: active = GI50 up to about 1.1 µM and inactive = higher.

Take `CCOC(=O)c1nc2ccc(C(F)(F)F)cc2nc1Oc1ccc(F)cc1`: the GI50 with HCC 2998, with DU-145, in the test with TK-10, with UACC-257, with NCI-H23 and in the test on M14 was > 100 µM (inactive) throughout. Further, the GI50 in the test with NCI/ADR-RES, with A498, with COLO 205, in the test on SF-295, with SF-539 and with SNB-19 was > 100 µM (inactive) in each case. Further, the GI50 was > 100 µM (inactive) with KM12; > 100 µM (inactive) in the test with SNB-75; > 100 µM (inactive) in the test on Hs-578T; > 100 µM (inactive) with CAKI-1; 42.3 µM (inactive) with K562; > 100 µM (inactive) in the test with SK-MEL-2. The GI50 in the test on MOLT-4 was > 100 µM (inactive).
In the case of `COC[C@@H]1[C@H]2OC(C)(C)O[C@H]2C(=O)N1C(=O)c1ccc(OC)cc1`, the GI50 with HCC 2998, in the test on TK-10, with UACC-257, in the test on NCI-H23, in the test on M14 and in the test with A498 was > 100 µM (inactive) each time. Besides, the GI50 in the test with COLO 205, in the test on SF-295, in the test with SF-539, in the test with SNB-19, with KM12 and in the test on SNB-75 was > 100 µM (inactive) throughout. The GI50 with CAKI-1, in the test with K562, in the test on SK-MEL-2 and in the test with MOLT-4 was > 100 µM (inactive) each time.
As to `O=c1c2ccccc2nc(-c2cccc(Cl)c2)n1NC1OC(CO)C(O)C(O)C1O` (stereo not drawn), the GI50 in the test with HCC 2998, with TK-10, in the test with UACC-257, in the test on NCI-H23, in the test with M14 and in the test on A498 was > 100 µM (inactive) each time. The GI50 in the test with COLO 205, in the test on SF-295, in the test on SF-539, with SNB-19, with KM12 and with SNB-75 was > 100 µM (inactive) throughout. In addition, the GI50 in the test with CAKI-1, with K562, with SK-MEL-2 and in the test with MOLT-4 was > 100 µM (inactive) throughout.
Regarding `Cc1nc(-c2cc3c(ccc4ccccc43)oc2=O)cc2c1c(=O)oc1ccc3ccccc3c12`, the GI50 with HCC 2998, with DU-145, in the test on TK-10, in the test on UACC-257, in the test with NCI-H23 and in the test with M14 was > 100 µM (inactive) throughout. For the same molecule, the GI50 in the test on NCI/ADR-RES, with A498, in the test with COLO 205, in the test on SF-295, with SF-539 and in the test on SNB-19 was > 100 µM (inactive) throughout. Moreover, the GI50 in the test on KM12, in the test with CAKI-1, in the test on K562, in the test on SK-MEL-2 and in the test on MOLT-4 was > 100 µM (inactive) each time.
Take `CN(C)CCN(C)CC1COC(C)(C)O1` (stereo not drawn): the GI50 with HCC 2998, in the test on TK-10, in the test with UACC-257, with NCI-H23, in the test with M14 and in the test with A498 was > 100 µM (inactive) each time. For the same molecule, the GI50 in the test with COLO 205, with SF-295, with SF-539, in the test on SNB-19, in the test on KM12 and with SNB-75 was > 100 µM (inactive) throughout. Moreover, the GI50 in the test with CAKI-1, in the test on K562, with SK-MEL-2 and in the test on MOLT-4 was > 100 µM (inactive) in each case.
For the molecule `COC(=O)/C(C)=C/[N+](=O)[O-]`, the GI50 is 17.3 µM (inactive) with HCC 2998; 16.3 µM (inactive) in the test on TK-10; 15.8 µM (inactive) in the test on UACC-257; 19.8 µM (inactive) in the test on NCI-H23; 15.7 µM (inactive) with M14; 23.3 µM (inactive) in the test with A498. In addition, the GI50 in the test on COLO 205 is 4.67 µM (inactive); with SF-295 it was 16.6 µM (inactive); in the test with SF-539, 18.8 µM (inactive); in the test with SNB-19, 17.1 µM (inactive); with KM12, 18.5 µM (inactive); in the test on SNB-75 it was 16.3 µM (inactive). Besides, the GI50 is 2.57 µM (inactive) in the test on CAKI-1, 3.4 µM (inactive) in the test on K562, 19.7 µM (inactive) with SK-MEL-2 and 11 µM (inactive) in the test on MOLT-4.
For the molecule `Oc1ccc(N=C2CCC(=C(c3ccccc3)c3ccc(Nc4ccc(O)cc4)cc3)CC2)cc1`, the GI50 is 64.3 µM (inactive) with HCC 2998; 60.8 µM (inactive) with DU-145; > 100 µM (inactive) in the test with TK-10; > 100 µM (inactive) in the test on UACC-257; 62.7 µM (inactive) in the test on NCI-H23; > 100 µM (inactive) with M14. For the same molecule, the GI50 in the test with NCI/ADR-RES is 80.9 µM (inactive); in the test on A498, > 100 µM (inactive); in the test on COLO 205 it was 33.3 µM (inactive); in the test with SF-295, > 100 µM (inactive); with SF-539, 46.1 µM (inactive); in the test on SNB-19 it was 78.5 µM (inactive). Also, the GI50 in the test with KM12 is 32.4 µM (inactive); with CAKI-1 it was 35.4 µM (inactive); with K562, > 100 µM (inactive); in the test on SK-MEL-2, 77.6 µM (inactive); with MOLT-4 it was 83.6 µM (inactive).
For the molecule `CN1CCOC(c2ccccc2)O1` (stereo not drawn), the GI50 in the test on HCC 2998, with TK-10, in the test with UACC-257, with NCI-H23, with M14 and in the test with A498 was > 100 µM (inactive) each time. Further, the GI50 in the test with COLO 205, in the test with SF-295, in the test with SF-539, with SNB-19, in the test on KM12 and in the test with SNB-75 was > 100 µM (inactive) each time. Moreover, the GI50 in the test on CAKI-1, in the test on K562, in the test with SK-MEL-2 and with MOLT-4 was > 100 µM (inactive) throughout.
As to `COc1ccc(C2CC(C)=Nc3c(O)nc(S)nc3N2)cc1` (stereo not drawn), the GI50 in the test on HCC 2998 is 16.7 µM (inactive); in the test with TK-10, 20.8 µM (inactive); in the test with UACC-257, 16.8 µM (inactive); in the test with NCI-H23, 30.5 µM (inactive); in the test with M14, 19.6 µM (inactive); in the test with A498 it was 19.2 µM (inactive). For the same molecule, the GI50 is 18.6 µM (inactive) with COLO 205; 22 µM (inactive) with SF-295; 24.5 µM (inactive) with SF-539; 18.7 µM (inactive) with SNB-19; 17.4 µM (inactive) in the test with KM12; 17.6 µM (inactive) in the test on SNB-75. Besides, the GI50 is 27.6 µM (inactive) with CAKI-1, 16.6 µM (inactive) in the test on K562, 63.8 µM (inactive) with SK-MEL-2 and 23.1 µM (inactive) in the test on MOLT-4.
For the molecule `CCc1c(O)cc(=O)oc1-c1ccc(OC)c(OC)c1`, the GI50 in the test on HCC 2998, in the test with DU-145, with TK-10, with UACC-257, in the test with NCI-H23 and with M14 was > 100 µM (inactive) in each case. Further, the GI50 with NCI/ADR-RES, in the test on A498, in the test on COLO 205, with SF-295, with SF-539 and in the test with SNB-19 was > 100 µM (inactive) each time. In addition, the GI50 was > 100 µM (inactive) in the test on KM12; 72.6 µM (inactive) with SNB-75; > 100 µM (inactive) in the test on Hs-578T; > 100 µM (inactive) in the test with CAKI-1; > 100 µM (inactive) with K562; > 100 µM (inactive) in the test on SK-MEL-2. Moreover, in the test on MOLT-4, the GI50 was > 100 µM (inactive).
For the molecule `COc1ccc(C2C(C=O)C(N3CCN(C)CC3)=Nc3nc4ccccc4n32)cc1` (stereo not drawn), the GI50 in the test with HCC 2998 is 17.7 µM (inactive); with DU-145, 17.8 µM (inactive); in the test on TK-10, 14.3 µM (inactive); in the test on UACC-257, 16.6 µM (inactive); in the test on NCI-H23, 20.5 µM (inactive); with M14 it was 17.4 µM (inactive). The GI50 in the test on NCI/ADR-RES is 17.4 µM (inactive); in the test with A498, 11 µM (inactive); with COLO 205, 16.8 µM (inactive); with SF-295, 19.9 µM (inactive); in the test on SF-539 it was 22.1 µM (inactive); with SNB-19 it was 15.3 µM (inactive). The GI50 in the test with KM12 is 16.3 µM (inactive); in the test with SNB-75 it was 11.8 µM (inactive); in the test on Hs-578T it was 33 µM (inactive); in the test with CAKI-1, 19.1 µM (inactive); with K562 it was 1.08 µM (active); in the test with SK-MEL-2, 13.1 µM (inactive). Besides, in the test with MOLT-4, the GI50 was < 0.01 µM (active).
Consider `Cc1ccc(-c2c(C#N)c(O)n(NS(=O)(=O)c3ccccc3)c(=O)c2C#N)cc1`, for which the GI50 with HCC 2998, in the test with TK-10, with UACC-257, in the test on M14, with NCI/ADR-RES and with A498 was > 100 µM (inactive) in each case. In addition, the GI50 in the test on COLO 205, in the test on SF-295, in the test on SF-539, in the test on SNB-19, with KM12 and in the test with SNB-75 was > 100 µM (inactive) in each case. Moreover, the GI50 in the test with CAKI-1, in the test with K562, in the test with SK-MEL-2 and in the test on MOLT-4 was > 100 µM (inactive) in each case.

For the origin of these results see ChEMBL document CHEMBL1201862, “PubChem BioAssay data set” (2004).
